Where “and” joins values, the source holds several entries; their conditions need not be identical. Equal entries are not always repeated.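 Five compound concentrations were applied to cells in 96-well plates for 48 hours; endpoints were derived by simple linear interpolation of the resulting dose-response curve. The concentration for 50% growth inhibition is given as GI50. TGI denotes the concentration required for complete inhibition of growth.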
Columns and labels:
Assay in all cases: DTP human tumour cell line panel, 48 h
HCT-15 colon = tested on: HCT-15 colon
T-47D breast = tested on: T-47D breast
U251 CNS = tested on: U251 CNS
SNB-19 CNS = tested on: SNB-19 CNS
HOP-62 NSCLC = tested on: HOP-62 NSCLC
KM12 colon = tested on: KM12 colon
CCRF-CEM leukemia = tested on: CCRF-CEM leukemia
A498 renal = tested on: A498 renal
MALME-3M melanoma = tested on: MALME-3M melanoma
SW-620 colon = tested on: SW-620 colon

SMILES | GI50 (HCT-15 colon) | TGI (HCT-15 colon) | TGI (T-47D breast) | GI50 (U251 CNS) | TGI (U251 CNS) | GI50 (SNB-19 CNS) | TGI (SNB-19 CNS) | GI50 (HOP-62 NSCLC) | TGI (HOP-62 NSCLC) | TGI (KM12 colon) | GI50 (CCRF-CEM leukemia) | TGI (CCRF-CEM leukemia) | GI50 (A498 renal) | TGI (A498 renal) | GI50 (MALME-3M melanoma) | TGI (MALME-3M melanoma) | GI50 (SW-620 colon) | TGI (SW-620 colon) | GI50 (T-47D breast) | GI50 (KM12 colon)
CC(C)CC(=O)O[C@H]1C(=O)O[C@@H]2C[C@H]3[C@H](C)C(=O)C(O[C@@H]4O[C@H](CO)[C@@H](O)[C@H](O)[C@H]4O)=C[C@]3(C)[C@H]3[C@@H](O)[C@H](O)[C@]4(C(=O)O)OC[C@]32[C@@H]14 | > 100 µM | > 100 µM | > 100 µM | 31.7 µM | > 100 µM | 31.9 µM | > 100 µM | 44.7 µM | > 100 µM | > 100 µM | 24.7 µM | 83.6 µM | > 100 µM | > 100 µM | 22.8 µM | 56.3 µM | > 100 µM | > 100 µM | – | –
OC1(c2ccccc2)c2ccccc2N(c2ccccc2)c2ccc(Cl)cc21 (stereo not drawn) | 0.424 µM | 1.86 µM | 0.282 µM | 0.201 µM | 0.536 µM | 0.378 µM | 1.45 µM | 0.328 µM | 1.23 µM | 0.845 µM | 0.382 µM | 13.7 µM | 0.198 µM | 0.765 µM | 0.237 µM | 0.643 µM | 0.197 µM | 0.491 µM | 0.103 µM | 0.296 µM
CCCN1CCCC(c2ccc(Nc3nc(Nc4cc(F)ccc4C(N)=O)c4cc[nH]c4n3)c(OC)c2)C1 (stereo not drawn) | 0.437 µM | 5.47 µM | 7.62 µM | 2.57 µM | 5.58 µM | 3.19 µM | 6.45 µM | 2.62 µM | 5.58 µM | 5.86 µM | 1.55 µM | 18.4 µM | 0.779 µM | 4.34 µM | 2.69 µM | 6.34 µM | 0.106 µM | 3.66 µM | 3.55 µM | 2.72 µM
C=C1C(=O)O[C@H]2[C@H]1CC/C(COC(=O)NCc1ccc(Cn3c(=O)sn(CCCI)c3=O)cc1)=C\CC[C@@]1(C)O[C@@H]21 | 1.89 µM | 3.68 µM | 3.84 µM | 1.75 µM | 3.68 µM | 3.12 µM | 13.8 µM | 13.5 µM | 27.4 µM | 24.8 µM | 0.314 µM | 2.18 µM | 4.85 µM | 16.8 µM | 1.39 µM | 3.21 µM | 1.4 µM | 3.17 µM | 1.79 µM | 7.98 µM
COC(=O)[C@@H](C)C[C@H](Cc1ccccc1)NC(=O)c1nc([C@@H](C[C@H](C(C)C)N(C)C(=O)[C@@H](NC(=O)[C@H]2CC(=O)CCN2C)C(C)C)OC(C)=O)sc1C(C)C | 0.524 µM | > 16.7 µM | > 16.7 µM | 0.352 µM | > 10.5 µM | 0.183 µM | > 16.7 µM | 0.694 µM | > 16.7 µM | > 6.76 µM | 0.37 µM | > 16.7 µM | 0.0826 µM | 0.818 µM | 0.119 µM | > 16.7 µM | 0.141 µM | > 16.7 µM | 0.08 µM | 0.132 µM
CCN(CC)CCN1C(=O)c2cccc3cc(N)cc(c23)C1=O | – | > 100 µM | > 100 µM | – | > 100 µM | – | > 100 µM | – | 40.3 µM | 66.9 µM | – | > 100 µM | – | 57.5 µM | – | 26.1 µM | – | 83.3 µM | – | –
COc1ncc(-c2ccc3nc(N)n(-c4ccccc4C(F)(F)F)c(=O)c3c2)cc1S(=O)(=O)Nc1ccc(F)cc1F | 0.758 µM | 6.96 µM | > 100 µM | 0.953 µM | 15.3 µM | 7.87 µM | 45.8 µM | 0.526 µM | > 100 µM | 12.2 µM | 1.28 µM | 32.2 µM | 0.329 µM | 1.96 µM | 6.53 µM | 34.4 µM | 1.84 µM | 20 µM | 0.425 µM | 1.06 µM
CC1(C)N=C(N)N=C(N)N1c1cccc(CC(=O)Nc2ccccc2)c1 | > 100 µM | > 100 µM | > 100 µM | 4.96 µM | > 100 µM | 39.7 µM | > 100 µM | 53.4 µM | > 100 µM | > 100 µM | 18.2 µM | > 100 µM | 22.8 µM | > 100 µM | 58.6 µM | > 100 µM | 4.56 µM | > 100 µM | > 100 µM | 15.1 µM
CC1SC(c2ccc(OCc3ccccc3)cc2)N(NC(=O)C(O)(c2ccccc2)c2ccccc2)C1=O (stereo not drawn) | 2.74 µM | 12.7 µM | 14.9 µM | 4.06 µM | 15.3 µM | 5 µM | 21.5 µM | 2.01 µM | 8.1 µM | 6.32 µM | 2.1 µM | 5.69 µM | 3.34 µM | 13.7 µM | 2.15 µM | 10.5 µM | 3.61 µM | 12.7 µM | 3.52 µM | 2.29 µM
C=C(C)[C@@H]1CC[C@]2(C(=O)OC)CC[C@]3(C)[C@H](CC[C@@H]4[C@@]5(C)CC/C(=N\OCCC(=NCCC#N)NOCCC#N)C(C)(C)[C@@H]5CC[C@]43C)[C@@H]12 | 5.77 µM | > 50 µM | > 50 µM | 4.3 µM | 12.4 µM | 12.6 µM | > 50 µM | 12.5 µM | > 50 µM | > 50 µM | 11.7 µM | > 50 µM | 21.7 µM | > 50 µM | 11.8 µM | > 50 µM | 4.45 µM | > 50 µM | 3.47 µM | 9.35 µM
Nc1c2ccccc2nc2ccccc12 | 1.95 µM and 2.27 µM | 11.1 µM and 7.23 µM | 6.38 µM and 7.61 µM | 2.16 µM and 3.34 µM | 8 µM and 13.1 µM | 1.82 µM and 3.61 µM | 12.9 µM and 20.7 µM | 1.66 µM and 3.66 µM | 4.96 µM and 15.2 µM | 7.58 µM and 14 µM | 1.69 µM and 2.3 µM | 7.27 µM and 65.4 µM | 1.07 µM and 2.18 µM | 2.37 µM and 7.28 µM | 1.86 µM and 3.69 µM | 3.66 µM and 9.62 µM | 1.06 µM and 3.06 µM | 5.95 µM and 22.6 µM | 1.62 µM and 2.99 µM | 2.04 µM and 3.27 µM
FC(F)(F)c1ccc(-c2cnc(-c3nn[nH]n3)nc2NC2CCCCCC2)cc1 | > 10 µM | > 10 µM | > 10 µM | > 10 µM | > 10 µM | > 10 µM | > 10 µM | > 10 µM | > 10 µM | > 10 µM | > 10 µM | > 10 µM | > 10 µM | > 10 µM | > 10 µM | > 10 µM | > 10 µM | > 10 µM | > 10 µM | > 10 µM
N#CSc1c[nH]c2cccc(/C=C/C(=O)/C=C(O)/C=C/c3cccc4[nH]cc(SC#N)c34)c12 | 0.186 µM | 0.895 µM | 2.27 µM | 0.185 µM | 1.14 µM | 0.649 µM | 3.2 µM | 1.15 µM | 4.35 µM | 0.998 µM | 0.159 µM | 6.47 µM | 1.03 µM | 4.27 µM | 0.52 µM | 1.07 µM | 0.151 µM | 0.555 µM | 0.173 µM | 0.351 µM
CC(=O)Nc1ccc(S(=O)(=O)N2C(=O)CCC2C(=O)Nc2ccccc2)cc1 (stereo not drawn) | 0.293 µM | 14.8 µM | 14.6 µM | 1.59 µM | 13.3 µM | 1.74 µM | 19.2 µM | 0.879 µM | 13.4 µM | 11.3 µM | 0.433 µM | 14.2 µM | 0.303 µM | 8.77 µM | 3.38 µM | 18.8 µM | 0.405 µM | 16.7 µM | 0.283 µM | 0.214 µM
COc1cc(F)c(F)c(F)c1C(=O)c1cnc(NC2CCN(S(C)(=O)=O)CC2)nc1N | 1.32 µM | > 25 µM | > 24.1 µM | 0.78 µM | > 25 µM | 1.39 µM | > 25 µM | 2.11 µM | 16.2 µM | > 14.4 µM | 1.21 µM | > 25 µM | 1.28 µM | 6.69 µM | 3.95 µM | 11.3 µM | 0.409 µM | > 25 µM | 2.64 µM | 0.958 µM

From PubChem BioAssay (NCI)
